Reference: patent publication US10973815B2, “Delta opioid agonist mu opioid antagonist compositions and methods for treating Parkinsons disease” (priority 2016, dated 2021)

Experiments:
6-OHDA-lesioned rats = experiment: Rotations in unilateral 6-OHDA-lesioned rats; type: in vivo, rat
Text: N=6 rats per group, Newman-Keuls post hoc test was used for statistical significance.
N=8 per group, Newman-Keuls post hoc test for statistical significance.
In a rat model of PD, focal injection of the neurotoxin 6-hydroxydopamine (6-OHDA) was used to create a unilateral lesion of the nigrostriatal dopamine pathway. When challenged with dopamine agonists, rats rotate in the direction contralateral to the lesion and the number of rotations may be used as a measure of anti-parkinsonian efficacy.

[1] = tested on: MPTP-lesioned cynomolgus macaques; experiment: Acute DPI-289 in combination with low-dose L-DOPA, versus high-dose L-DOPA, in MPTP-lesioned macaques with L-DOPA-induced dyskinesia; type: in vivo, Macaca fascicularis
Text: This study utilized female MPTP-lesioned cynomolgus macaques that have received chronic repeat-treatment with L-DOPA and manifested stable and reproducible dyskinesia, of choreic and dystonic nature, in response to subsequent L-DOPA-treatments. Eight cynomolgus monkeys (Macaca fascicularis, 7.6-13.1 years of age, 3.0-4.5 kg) were used in this study. In a prior experiment, for each individual animal a low and high dose of L-DOPA was established such that the low dose (LD1) provided modest anti-parkinsonian action (1-2 h) and elicited predominantly non-disabling dyskinesia, the high dose (LDh) provided the best anti-parkinsonian effect achievable but also elicited disabling dyskinesia and an anti-parkinsonian benefit of 2-3 h duration
The behavioral effects of acute DPI-289 administered in combination with low-dose L-DOPA (LD1) were assessed. Also higher dose of L-DOPA was also assessed without the addition of DPI-289. The low dose (LD1) was about 10 to 11 mg/kg of L-DOPA which is considered to be sub-optimal in terms of anti-parkinsonian benefit. The dose of DPI-289 was 20 mg/kg and the high dose of L-DOPA was about 30 to 31 mg/kg and considered to an optimal does in terms of anti-parkinsonian benefit but with disabling dyskinesia. The DPI-289 was administered one (1) hour prior to the L-DOPA and start of observation. Activity counts were collected and parkinsonian disability and dyskinesia was assessed via post-hoc analysis of video-recordings by a movement disorder neurologist blinded to treatment.
On the day before behavioral observations, food was removed overnight, from 5 p.m. On days of behavioral assessment, treatment was administered to the animals in their home cage at approximately 9 a.m. A 6 h period of observation then commenced 1 h after oral dosing.
The animals were rendered parkinsonian by once daily subcutaneous injection of 0.2 mg/kg MPTP, administered for 8-12 days, until the first appearance of parkinsonism symptoms. After this time, a parkinsonian syndrome reached a moderate to marked level, over approximately 30 days, and stabilized. Additional administrations of MPTP were given to some animals to titrate to similar degrees of parkinsonism in individuals across the group. […] Sixty days after commencing MPTP administration, L-DOPA (25 mg/kg) was administered orally twice daily for at least two months. L-DOPA was given with the decarboxylase inhibitor benserazide (as Madopar™). This treatment leads to the development of motor fluctuations, including dyskinesia.

[2] = tested on: unilateral 6-OHDA-lesioned Rats; experiment: Postural asymmetry and dyskinesia (AIMs) on repeated dosing in unilateral 6-OHDA-lesioned rats; type: in vivo, rat; conditions: 3 mg/kg p.o. daily for 15 days
[3] = tested on: MPTP-lesioned macaques with established motor complications; experiment: Monotherapy with DPI-289 in MPTP-lesioned macaques with established motor complications due to L-DOPA; type: in vivo, Macaca fascicularis
Procedure: This activity is measured by an infra-red movement detector and captures all movement, normal and abnormal. Data are mean±s.e.m. […] N=8 for all treatment groups. */**/*** represents P<0.05, P<0.01 or P<0.001 cf vehicle-treatment; 2-way RM ANOVA (FIG. 2A) or 1-way RM-ANOVA with Holm-Sidak's Multiple Comparison test (FIGS. 2B and C). […].
Parkinsonian disability is scored by a trained neurologist who is blinded to treatment allocation but is trained to differentiate normal from abnormal movements and is able to distinguish diminution of Parkinsonian disability from dyskinetic (abnormal) movements. Data are mean±s.e.m. […] N=8 for all treatment groups. */**/*** represents P<0.05, P<0.01 or P<0.001 cf. vehicle-treatment; 2-way RM ANOVA (FIG. 6A) or 1-way RM-ANOVA with Holm-Sidak's Multiple Comparison test (FIGS. 6 B and C).
Eight cynomolgus monkeys (Macaca fascicularis, 6.4-6.8 years of age, 2.8-4.2 kg were used in this study. Animals were housed two or three per cage in the same housing room. The housing rooms were subject to a 12 hour light-dark cycle (lights on 7 a.m.), temperature 20-25° C. in a room containing only animals of the same sex. Fresh fruit, primate pellets and water were available ad libitum other than at times of overnight fasting prior to PK or behavioral assessment days.
The animals were rendered parkinsonian via once-daily subcutaneous injection of MPTP (0.2 mg/kg), administered for between 9 and 12 days, until the appearance of parkinsonism symptoms. After this time, a parkinsonian syndrome reached a moderate to marked level, over approximately 30 days, and stabilized. […] L-DOPA naïve animals have received no L-DOPA and those showing established motor complication have received L-DOPA in an amount 25 mg/kg orally twice daily for at least 2 months. L-DOPA is given with the decarboxylase inhibitor benserazide (as Madopar™).

[4] = DPI-289 20 mg/kg in combination with low-dose L-DOPA

CCN(CC)C(=O)c1ccc(C(c2cccc(O)c2)N2C[C@@H](C)N(Cc3cccc(F)c3)C[C@@H]2C)cc1 (stereo partly drawn) [DPI-289, 4-((alpha-R)-alpha-((2S,5R)-2,5-Dimethyl-4-(3-fluorobenzyl)-1-piperazinyl)-3-hydroxybenzyl)-N,N-diethylbenzamide]
contralateral and ipsilateral rotations (6-OHDA-lesioned rats; 30 mg/kg): also increased rotations but the effect on contralateral rotations appeared to be diminished
contralateral and ipsilateral rotations (6-OHDA-lesioned rats; 1-10 mg/kg i.p.): dose-related increase in both contralateral and ipsilateral rotations
L-DOPA-induced contralateral rotations (6-OHDA-lesioned rats; co-administered with sub-optimal dose of L-DOPA (25 mg/kg i.p.)): marked potentiation of contralateral rotations
Good ON-time [1, 4]: comparable ‘good’ time as that of the high dose of L-DOPA
alertness [1, 4]: improvement in alertness value that mirrored that of the high dose of L-DOPA
parkinsonian disability [1, 4]: even and consistent level of fairly mild parkinsonian disability
postural instability [1, 4]: reduced postural instability from about 2 to 6 hours after the dosing
range of movement impairment [1, 4]: reduced range of movement impairment than low dose L-DOPA alone but this difference did not reach statistical significance
motor activity ([1]; DPI-289 20 mg/kg in combination with low-dose L-DOPA (about 10 to 11 mg/kg), cf. high dose L-DOPA): extended activity into four and five hours
dyskinesia ([1]; DPI-289 20 mg/kg in combination with low-dose L-DOPA, cf. low-dose L-DOPA alone): no additional dyskinesia
BAD ON-time (ON-time with disabling dyskinesia) ([1]; DPI-289 20 mg/kg in combination with low-dose L-DOPA, relative to high dose L-DOPA): considerably less of ‘bad’ time
bradykinesia ([1]; DPI-289 20 mg/kg in combination with low-dose L-DOPA, three to six hours after dosing): same level of bradykinesia as that of the high dose of L-DOPA
duration of effect on parkinsonian disability ([1]; DPI-289 20 mg/kg in combination with sub-therapeutic L-DOPA): at least 6 hours
dyskinesia (abnormal involuntary movements, AIMs) [2]: did not elicit dyskinesia
postural asymmetry [2]: reduced or reversed the postural asymmetry
bradykinesia ([3]; 20 mg/kg): significant change only in the first hour
ON-time ([3]; 20 mg/kg oral): only limited on-time
parkinsonian disability ([3]; 20 mg/kg, two to three hours after dosing): significant reduction in parkinsonian disability
postural impairment ([3]; 1, 10 and 20 mg/kg, two to four hours after dosing): significant reduction in postural impairment
range of movement ([3]; 1, 10 or 20 mg/kg, three to four hours after dose): increase in the range of movement
alertness ([3]; 10 or 20 mg/kg, two to four hours after dosing): significant reduction in deficits in alertness
dyskinesia ([3]; L-DOPA primed animals, 1, 10, 20 mg/kg): does not cause dyskinesia
duration of effect on parkinsonian disability ([3]; single dose of 20 mg/kg): about 4 hours
movement activity / motor impairment ([3]; single oral dose of 10 or 20 mg/kg): significantly alleviated motor impairment for 1 to 4 hours
